Measured values: patent publication US20250332149A1, “PIPERIDINE COMPOUNDS AND PHARMACEUTICAL COMPOSITIONS” (Lumos Pharma, Inc., priority 2024, published 2025)
Like-named read-outs stand apart in the source and are kept apart here.

Assay: Phase 1 study Part 1: plasma PK and relative bioavailability of LUM-201 tablets vs capsule
Type: in vivo, human
Conditions: for decrease of DNCmax as compared to the 90 mg tablet dose, fasted: statistically significant; for Tmax / AUC(0-inf) / AUC(0-t) / Cmax / half-life: human, plasma
Description: This study in healthy adult subjects was designed to establish the pharmacokinetic (PK) and pharmacodynamic (PD) profiles for the orally administered test product (coated mini-tablets in a capsule) and reference product (mini-tablet) to evaluate relative bioavailability in Part 1 and to evaluate the food effect on the bioavailability of test product (capsule only) in Part 2.
This was a single center, open-label, randomized, Phase 1 study in healthy adult subjects. This study consisted of 2 parts: Part 1 was a 4-sequence, 4-treatment, 4 Treatment Periods, crossover study to determine the relative bioavailability of current tablets to new capsule formulations of LUM-201; Part 2 was a 2-sequence, 2-treatment, 2 Treatment Periods, crossover study to evaluate the food effect on the bioavailability of the new capsule formulation of LUM-201. An individual subject was allowed to participate in only 1 part (Part 1 or Part 2) of the study. Forty subjects were planned and enrolled in this study. • Part 1: A total of 28 subjects were planned and enrolled in Part 1. Part 1 consisted of 4 sequences, each having 4 Treatment Periods enrolling 7 subjects (1:1:1:1 ratio). During Treatment Periods 1 through 4, each subject received 4 single oral doses of LUM-201 drug product in a randomized, crossover order. • Part 2: A total of 12 subjects were planned and enrolled in Part 2. Part 2 consisted of 2 sequences, each having 2 Treatment Periods enrolling 6 subjects (1:1 ratio). Each subject received a single oral dose of LUM-201 at each Treatment Period. During Treatment Periods 1 and 2, each subject received 2 single oral doses of LUM-201 in a randomized, crossover order. • On Day 1 of Treatment Period 1, subjects were administered the assigned treatment (A or B) as randomized, followed by a washout of at least 3 days between Treatment Periods 1 and 2. Subjects stayed in-house (not discharged) between the Treatment Periods. • Treatment A was dosed at 85.3 mg capsule formulation of LUM-201 (intact capsule consumed unopened) consumed while subject was in a fasted state with 240 mL of water. • Treatment B was dosed at 85.3 mg capsule formulation of LUM-201 (intact capsule consumed unopened) consumed 30 minutes after start of a high-fat meal with 240 mL of water. • Subjects were discharged from the study center on the morning of Day 3 of Treatment Period 2 after the scheduled study assessments had been completed.
• Treatment A (reference): five 18 mg oral tablets of LUM-201 were administered under fasted state with 240 mL of water. • Treatment B (test): a single 85.3 mg dose of oral capsule formulation of LUM-201 was administered as a whole capsule under fasted state with 240 mL of water. • Treatment C (test): a single 85.3 mg dose of oral capsule formulation of LUM-201 was administered by dosing capsule contents (dry) under fasted state with 240 mL of water. • Treatment D (test): a single 85.3 mg dose of oral capsule formulation of LUM-201 was mixed (capsule contents) with banana puree (2 teaspoons), followed by 240 mL of water and was ingested within 5 minutes under fasted state (Note: Banana Puree, single serve cup was used [118.3 mL]). […]

[1] = Part 1, Treatment D (test): 85.3 mg capsule contents in banana puree, oral, fasted
[2] = Part 1, Treatment D (test): 85.3 mg capsule contents in banana puree, oral, fasted, ANOVA
[3] = test Treatment B (85.3 mg whole capsule, fasted) to reference Treatment A (90 mg tablets, fasted)
[4] = test Treatment C (85.3 mg capsule contents in dosing cup, fasted) to reference Treatment A (90 mg tablets, fasted)
[5] = test Treatment D (85.3 mg capsule contents in banana puree) to reference Treatment A (90 mg tablets, fasted)

- DNAUC0-last, Geometric Mean [1]: 6.276 ng·h/mL/mg
- DNCmax, Arithmetic Mean [1]: 1.422 ng/mL/mg
- DNCmax, Geometric Mean [1]: 1.087 ng/mL/mg
- t1/2, Geometric Mean [1]: 8.09 h
- tlag, Median [1]: 0 h
- tlast, Median [1]: 48.02 h
- λz, Arithmetic Mean [1]: 0.0872 h⁻¹
- λz, Geometric Mean [1]: 0.0856 h⁻¹
- DNAUC0-inf, GLS Mean [2]: 6.38 ng·h/mL/mg
- DNAUC0-last, GLS Mean [2]: 6.26 ng·h/mL/mg
- DNCmax, GLS Mean [2]: 1.08 ng/mL/mg
- decrease of DNCmax as compared to the 90 mg tablet dose, fasted (Treatment B: 85.3 mg whole capsule, fasted): 14.1%
- decrease of DNCmax as compared to the 90 mg tablet dose, fasted (Treatment C: 85.3 mg capsule contents in a dosing cup, fasted): 20.4%
- decrease of DNCmax as compared to the 90 mg tablet dose, fasted (Treatment D: 85.3 mg capsule contents in banana puree): 14.4%
- Tmax (oral, Part 1, post-dose, Treatments A to D, read-out: median tmax, range over all four treatments): 0.782 to 1.23 h
- AUC(0-inf) (po, 85.3 mg, Part 1, Treatment B (test): 85.3 mg whole capsule, oral, fasted, read-out: AUC0-inf, Arithmetic Mean): 566 ng·h/mL
- AUC(0-inf) (po, 85.3 mg, Part 1, Treatment B (test): 85.3 mg whole capsule, oral, fasted, read-out: AUC0-inf, Geometric Mean): 512 ng·h/mL
- AUC(0-t) (po, 85.3 mg, Part 1, Treatment B (test): 85.3 mg whole capsule, oral, fasted, read-out: AUC0-last, Arithmetic Mean): 557 ng·h/mL
- AUC(0-t) (po, 85.3 mg, Part 1, Treatment B (test): 85.3 mg whole capsule, oral, fasted, read-out: AUC0-last, Geometric Mean): 504 ng·h/mL
- Cmax (po, 85.3 mg, Part 1, Treatment B (test): 85.3 mg whole capsule, oral, fasted, read-out: Cmax, Arithmetic Mean): 115 ng/mL
- Cmax (po, 85.3 mg, Part 1, Treatment B (test): 85.3 mg whole capsule, oral, fasted, read-out: Cmax, Geometric Mean): 93.2 ng/mL
- half-life (po, 85.3 mg, Part 1, Treatment B (test): 85.3 mg whole capsule, oral, fasted, read-out: t1/2, Arithmetic Mean (converted)): 8.19 h
- half-life (po, 85.3 mg, Part 1, Treatment B (test): 85.3 mg whole capsule, oral, fasted, read-out: t1/2, Geometric Mean (converted)): 8.06 h
- Tmax (po, 85.3 mg, Part 1, Treatment B (test): 85.3 mg whole capsule, oral, fasted, read-out: tmax, Median): 1.23 h
- AUC(0-inf) (po, 85.3 mg, Part 1, Treatment C (test): 85.3 mg capsule contents (dry), oral, fasted, read-out: AUC0-inf, Arithmetic Mean): 583 ng·h/mL
- AUC(0-inf) (po, 85.3 mg, Part 1, Treatment C (test): 85.3 mg capsule contents (dry), oral, fasted, read-out: AUC0-inf, Geometric Mean): 534 ng·h/mL
- AUC(0-t) (po, 85.3 mg, Part 1, Treatment C (test): 85.3 mg capsule contents (dry), oral, fasted, read-out: AUC0-last, Arithmetic Mean): 573 ng·h/mL
- AUC(0-t) (po, 85.3 mg, Part 1, Treatment C (test): 85.3 mg capsule contents (dry), oral, fasted, read-out: AUC0-last, Geometric Mean): 524 ng·h/mL
- Cmax (po, 85.3 mg, Part 1, Treatment C (test): 85.3 mg capsule contents (dry), oral, fasted, read-out: Cmax, Arithmetic Mean): 98.9 ng/mL
- Cmax (po, 85.3 mg, Part 1, Treatment C (test): 85.3 mg capsule contents (dry), oral, fasted, read-out: Cmax, Geometric Mean): 86.5 ng/mL
- half-life (po, 85.3 mg, Part 1, Treatment C (test): 85.3 mg capsule contents (dry), oral, fasted, read-out: t1/2, Arithmetic Mean (converted)): 8.58 h
- half-life (po, 85.3 mg, Part 1, Treatment C (test): 85.3 mg capsule contents (dry), oral, fasted, read-out: t1/2, Geometric Mean (converted)): 8.47 h
- Tmax (po, 85.3 mg, Part 1, Treatment C (test): 85.3 mg capsule contents (dry), oral, fasted, read-out: tmax, Median): 1.12 h
- AUC(0-inf) (po, 85.3 mg, Part 1, Treatment D (test): 85.3 mg capsule contents in banana puree, oral, fasted, read-out: AUC0-inf, Arithmetic Mean): 629 ng·h/mL
- AUC(0-inf) (po, 85.3 mg, Part 1, Treatment D (test): 85.3 mg capsule contents in banana puree, oral, fasted, read-out: AUC0-inf, Geometric Mean): 546 ng·h/mL
- AUC(0-t) (po, 85.3 mg, Part 1, Treatment D (test): 85.3 mg capsule contents in banana puree, oral, fasted, read-out: AUC0-last, Arithmetic Mean): 619 ng·h/mL
- AUC(0-t) (po, 85.3 mg, Part 1, Treatment D (test): 85.3 mg capsule contents in banana puree, oral, fasted, read-out: AUC0-last, Geometric Mean): 535 ng·h/mL
- Cmax (po, 85.3 mg, Part 1, Treatment D (test): 85.3 mg capsule contents in banana puree, oral, fasted, read-out: Cmax, Arithmetic Mean): 121 ng/mL
- Cmax (po, 85.3 mg, Part 1, Treatment D (test): 85.3 mg capsule contents in banana puree, oral, fasted, read-out: Cmax, Geometric Mean): 92.7 ng/mL
- half-life (po, 85.3 mg, Part 1, Treatment D (test): 85.3 mg capsule contents in banana puree, oral, fasted, read-out: t1/2, Arithmetic Mean (converted)): 8.23 h
- half-life (po, 85.3 mg, Part 1, Treatment D (test): 85.3 mg capsule contents in banana puree, oral, fasted, read-out: t1/2, Geometric Mean (converted)): 8.1 h
- Tmax (po, 85.3 mg, Part 1, Treatment D (test): 85.3 mg capsule contents in banana puree, oral, fasted, read-out: tmax, Median): 1.03 h
- AUC(0-inf) (po, 90 mg, Part 1, Treatment A (reference): five 18 mg tablets (90 mg), oral, fasted, read-out: AUC0-inf, Arithmetic Mean): 630 ng·h/mL
- AUC(0-inf) (po, 90 mg, Part 1, Treatment A (reference): five 18 mg tablets (90 mg), oral, fasted, read-out: AUC0-inf, Geometric Mean): 562 ng·h/mL
- AUC(0-t) (po, 90 mg, Part 1, Treatment A (reference): five 18 mg tablets (90 mg), oral, fasted, read-out: AUC0-last, Arithmetic Mean): 620 ng·h/mL
- AUC(0-t) (po, 90 mg, Part 1, Treatment A (reference): five 18 mg tablets (90 mg), oral, fasted, read-out: AUC0-last, Geometric Mean): 552 ng·h/mL
- Cmax (po, 90 mg, Part 1, Treatment A (reference): five 18 mg tablets (90 mg), oral, fasted, read-out: Cmax, Arithmetic Mean): 132 ng/mL
- Cmax (po, 90 mg, Part 1, Treatment A (reference): five 18 mg tablets (90 mg), oral, fasted, read-out: Cmax, Geometric Mean): 114 ng/mL
- half-life (po, 90 mg, Part 1, Treatment A (reference): five 18 mg tablets (90 mg), oral, fasted, read-out: t1/2, Arithmetic Mean (converted)): 7.95 h
- half-life (po, 90 mg, Part 1, Treatment A (reference): five 18 mg tablets (90 mg), oral, fasted, read-out: t1/2, Geometric Mean (converted)): 7.83 h
- Tmax (po, 90 mg, Part 1, Treatment A (reference): five 18 mg tablets (90 mg), oral, fasted, read-out: tmax, Median): 0.782 h
- DNAUC0-inf, Geo LSM Ratio % [3]: 95.50%
- DNAUC0-last, Geo LSM Ratio % [3]: 95.50%
- DNCmax, Geo LSM Ratio % [3]: 85.90%
- DNAUC0-inf, Geo LSM Ratio % [4]: 99.50%
- DNAUC0-last, Geo LSM Ratio % [4]: 99.40%
- DNCmax, Geo LSM Ratio % [4]: 79.60%
- DNAUC0-inf, Geo LSM Ratio % [5]: 102.20%
- DNAUC0-last, Geo LSM Ratio % [5]: 102.00%
- DNCmax, Geo LSM Ratio % [5]: 85.60%
SMILES: CC(C)(N)C(=O)N[C@H](COCc1ccccc1)C(=O)N1CCC2(CC1)CN(S(C)(=O)=O)c1ccccc12 [LUM-201, N-[1(R)-[(1,2-dihydro-1-methanesulfonylspiro[3H-indole-3,4′-piperdin]-yl)carbonyl]-2-(phenylmethyloxy)ethyl]-2-amino-2-methylpropanamide methanesulfonate]
